We go through one substance from patent publication US4328214A, “Cyclopeptides and pharmaceutical preparations thereof and also processes for their manufacture” (Ciba-Geigy Corporation, priority 1979, dated 1982).

The subject of this experiment is insulin and glucagon release. The experiment in a line: determination of insulin and glucagon release using the isolated perfused pancreas of a rat. Particulars: multiple of the reference's inhibitory effect.

On to “[D-Trp^8 ; β-(1-naphthyl)-Gaba^12 ]-cyclosomatostatin(5-12)-octapeptide [formula ID diastereoisomeric mixture]”, for which the “inhibitory effect relative to [D-Trp^8 ; Gaba^12 ]-cyclosomatostatin(5-12)-octapeptide (formula M, p=1)” value is “approximately 10 times”.
